According to US20260124191A1, “HISTONE DEACETYLASE INHIBITOR AND USES THEREOF” (NANJING HONGSHUN PHARMACEUTICAL TECHNOLOGY CO., LTD, priority 2023, published 2026):

Legend:
[1] = test system: HDAC; assay: HDAC inhibitory activity assay (FRET); assay type: biochemical; conditions: for IC50: HDAC, FRET, read-out: Half-maximal inhibitory concentration (IC50 ± SD); for Inhibition rate: test concentration 100 nM, relative to DMSO control
Protocol: The HDAC inhibitory activity of the synthesized compounds was determined by fluorescence resonance energy transfer (FRET), and then compared with that of the positive control to screen out compounds with better activity. HDAC was obtained by purification or purchased directly.
The method was as follows.
An enzyme was added to reaction wells, a reaction buffer was added to control wells, a sample dissolved in DMSO was added to the reaction wells, and the wells were incubated using a contactless nanoflow sonic pipetting system (Ech-550; nanoflow). A fluorescent substrate was added to each reaction well and then rotated and shaken. The wells were incubated for 1-2 h at 30° C. under a sealed condition. A TMP26-containing chromogenic agent was added to terminate the reaction and produce fluorescence. The fluorescence intensity was detected using En Vision multi-label microplate detector (Perkin Elmer) (excitation light: 490 nm, emitted light: 520 nm). After the stabilization of color development, the endpoint value was read. The percentage (relative to the DMSO control group) inhibition rate was calculated using the software GraphPad Prism 4.

[2] = test system: human breast cancer cells MCF7; assay: In vitro anti-tumor activity, MTT method; assay type: cell-based; conditions: MCF-7, MTT, 96-hour treatment
Protocol: (§1) The inhibitory effects of the compounds against human non-small cell lung cancer cell lines A549, NCI-H1650, human small cell lung cancer cell lines H446, human prostate cancer cells DU145, PC-3, LNCAP, human colon cancer cells lines HCT116, human breast cancer cells MDA-MB-231, and MCF7 tumor cell lines were determined using the MTT method.
(§2) The method was as follows. The cells in the exponential growth phase were collected to count living cells. The concentration of the cell suspension was adjusted using the corresponding medium of each group of cells. The cell suspension was added to the 96-well culture plate at 100 μL per cell, and the plate was placed in a 5% CO2 incubator at 37° C. and incubated for 24 h. Each test compound was dissolved in DMSO to prepare a stock solution with a corresponding concentration. Then, each stock solution was diluted 500-fold with the medium to prepare 4 replicate wells. 100 μL of the corresponding 500-fold solution was added to each well per cell line, with the final DMSO concentration of 0.1%. […] The half-maximal (relative to the DMSO control group) inhibition rate was calculated using the software GraphPad Prism 4.

[3] = test system: human non-small cell lung cancer cell line A549; assay: In vitro anti-tumor activity, MTT method; assay type: cell-based; conditions: 96-hour treatment
Protocol: as §1, §2

[4] = test system: human prostate cancer cells DU145; assay: In vitro anti-tumor activity, MTT method; assay type: cell-based; conditions: 96-hour treatment
Protocol: as §1, §2

[5] = test system: human prostate cancer cells PC-3; assay: In vitro anti-tumor activity, MTT method; assay type: cell-based; conditions: PC-3, MTT, 96-hour treatment
Protocol: as §1, §2

SMILES | IC50 [1] [nM] | IC50 ([2]; Homo sapiens, MCF7, 96 h) [nM] | IC50 ([3]; Homo sapiens, A549, 96 h) [nM] | IC50 ([4]; Homo sapiens, DU-145, 96 h) [nM] | IC50 ([5]; Homo sapiens, 96 h) [nM] | Inhibition rate [1] | IC50 [2] [nM] | IC50 [3] [nM] | IC50 [4] [nM] | IC50 [5] [nM] | Inhibition rate ([1]; 0.1 µM)
CCOc1ccccc1/C=C1\CC(=O)N(CCCCCCC(=O)NO)C1=O [Example I-38, (E)-7-(3-(2-ethoxybenzal)-2,5-diketopyrrolidinyl)-N-hydroxyheptamide] | 16.7 ± 0.21 | 510 ± 70 | 1780 ± 200 | 340 ± 40 | 890 ± 50 | – | – | – | – | – | –
O=C(CCCCCCN1C(=O)C/C(=C\c2cccc(Br)c2)C1=O)NO [Example I-27, (E)-7-(3-(3-bromobenzal)-2,5-diketopyrrolidinyl)-N-hydroxyheptamide] | – | 830 ± 50 | 2810 ± 100 | 650 ± 90 | 1060 ± 130 | 90.9% ± 1.2% | – | – | – | – | –
O=C(CCCCCCN1C(=O)C/C(=C\c2ccccc2O)C1=O)NO [Example I-37, (E)-7-(3-(2-hydroxybenzal)-2,5-diketopyrrolidinyl)-N-hydroxyheptamide] | – | 800 ± 150 | 4340 ± 690 | 1720 ± 120 | 1930 ± 230 | 90.6% ± 0.9% | – | – | – | – | –
O=C(CCCCCCN1C(=O)C/C(=C\c2cccc(I)c2)C1=O)NO [Example I-29, (E)-7-(3-(3-iodobenzal)-2,5-diketopyrrolidinyl)-N-hydroxyheptamide] | – | 1380 ± 120 | 5090 ± 230 | 910 ± 70 | 1470 ± 150 | 91.3% ± 0.7% | – | – | – | – | –
O=C(CCCCCN1C(=O)C/C(=C\c2ccccc2)C1=O)NO [Example I-3] | – | 2580 ± 70 | 3510 ± 150 | 1490 ± 210 | 4270 ± 250 | – | – | – | – | – | –
CN(C)c1ccc(/C=C2\CC(=O)N(CCCCCCC(=O)NO)C2=O)cc1 [Example I-16, (E)-7-(3-(4-dimethylaminobenzal)-2,5-diketopyrrolidinyl)-N-hydroxyheptamide] | – | 1160 ± 120 | 2240 ± 80 | 920 ± 30 | 1750 ± 120 | 93.3% ± 1.0% | – | – | – | – | –
O=C(CCCN1C(=O)C/C(=C\c2ccccc2)C1=O)N[C@H]1CCCC[C@@H]1O [Example I-10, 4-(3-((E)-benzal)-2,5-diketopyrrolidinyl)-N-((1S,2S)-2-hydroxycyclohexyl) butyramide] | – | > 20000 | > 20000 | > 20000 | > 20000 | – | – | – | – | – | –
O=C(CCCCCCN1C(=O)C/C(=C\c2cccs2)C1=O)NO [Example I-23, (E)-7-(3-(2-methylenethienyl)-2,5-diketopyrrolidinyl)-N-hydroxyheptamide] | – | 970 ± 50 | 3440 ± 150 | 540 ± 100 | 910 ± 70 | 84.9% ± 0.5% | – | – | – | – | –
COc1cc(/C=C2\CC(=O)N(CCCCCCC(=O)NO)C2=O)cc(OC)c1O [Example I-36, (E)-7-(3-(4-hydroxy-3,5-dimethoxybenzal)-2,5-diketopyrrolidinyl)-N-hydroxyheptamide] | – | 1880 ± 140 | > 10000 | 3880 ± 40 | 1730 ± 200 | 74.8% ± 2.8% | – | – | – | – | –
O=C(CCCCCCN1C(=O)C/C(=C\c2ccccc2)C1=O)N[C@H]1CCCC[C@@H]1O [Example I-13, 7-(3-((E)-benzal)-2,5-diketopyrrolidinyl)-N-((1S,2S)-2-hydroxycyclohexyl)heptamide] | – | > 20000 | > 20000 | > 20000 | > 20000 | 0% | – | – | – | – | –
COc1ccc(/C=C2\CC(=O)N(CCCCCCC(=O)NO)C2=O)cc1 [Example I-33, (E)-7-(3-(4-methoxybenzal)-2,5-diketopyrrolidinyl)-N-hydroxyheptamide] | 13 ± 0.02 | 1020 ± 110 | 1520 ± 140 | 500 ± 100 | 890 ± 100 | – | – | – | – | – | –
Nc1cc(F)ccc1NC(=O)CCCN1C(=O)C/C(=C\c2ccccc2)C1=O [Example I-6, (E)-N-(2-amino-4-fluorophenyl)-4-(3-benzal-2,5-diketopyrrolidinyl) butyramide] | – | – | – | – | – | – | > 20000 | > 20000 | > 20000 | > 20000 | –
COc1cc(Br)ccc1/C=C1\CC(=O)N(CCCCCCC(=O)NO)C1=O [Example I-40, (E)-7-(3-(4-bromo-2-methoxybenzal)-2,5-diketopyrrolidinyl)-N-hydroxyheptamide] | 5.5 ± 0.03 | 320 ± 20 | 1490 ± 90 | 250 ± 40 | 670 ± 100 | – | – | – | – | – | –
Nc1cc(F)ccc1NC(=O)CCCCN1C(=O)C/C(=C\c2ccccc2)C1=O [Example I-7, (E)-N-(2-amino-4-fluorophenyl)-5-(3-benzal-2,5-diketopyrrolidinyl)pentanamide] | – | > 20000 | > 20000 | > 20000 | > 20000 | 0% | – | – | – | – | –
N#Cc1ccccc1/C=C1\CC(=O)N(CCCCCCC(=O)NO)C1=O [Example I-20, (E)-7-(3-(2-cyanobenzal)-2,5-diketopyrrolidinyl)-N-hydroxyheptamide] | 40.1 ± 1.21 | 820 ± 50 | 2820 ± 390 | 740 ± 100 | 870 ± 100 | – | – | – | – | – | –
O=C(CCCCCCN1C(=O)C/C(=C\c2cccc(F)c2)C1=O)NO [Example I-28, (E)-7-(3-(3-fluorobenzal)-2,5-diketopyrrolidinyl)-N-hydroxyheptamide] | – | 920 ± 50 | 3020 ± 510 | 660 ± 120 | 890 ± 50 | 85.2% ± 1.6% | – | – | – | – | –
Cc1ccc(/C=C2\CC(=O)N(CCCCCCC(=O)NO)C2=O)cc1 [Example I-18, (E)-7-(3-(4-methylbenzal)-2,5-diketopyrrolidinyl)-N-hydroxyheptamide] | – | – | 1880 ± 170 | – | – | – | 460 ± 40 | – | 310 ± 50 | 2200 ± 80 | 85.9% ± 0.9%
O=C(CCCCCCN1C(=O)C/C(=C\c2ccccn2)C1=O)NO [Example I-21, (E)-7-(3-(2-methylenepyridin)-2,5-diketopyrrolidinyl)-N-hydroxyheptamide] | – | 1540 ± 90 | 2250 ± 250 | 670 ± 90 | 990 ± 40 | 88.3% ± 1.1% | – | – | – | – | –
O=C(CCCCCCCN1C(=O)C/C(=C\c2ccccc2)C1=O)NO [Example I-5] | – | 3890 ± 360 | 5880 ± 580 | 1560 ± 180 | 5010 ± 380 | – | – | – | – | – | –
O=C(CCCCN1C(=O)C/C(=C\c2ccccc2)C1=O)N[C@H]1CCCC[C@@H]1O [Example I-11, 5-(3-((E)-benzal)-2,5-diketopyrrolidinyl)-N-((1S,2S)-2-hydroxycyclohexyl)pentanamide] | – | > 20000 | > 20000 | > 20000 | > 20000 | – | – | – | – | – | –
Nc1cc(F)ccc1NC(=O)CCCCCCN1C(=O)C/C(=C\c2ccccc2)C1=O [Example I-9, (E)-N-(2-amino-4-fluorophenyl)-7-(3-benzal-2,5-diketopyrrolidinyl)heptamide] | – | > 20000 | > 20000 | > 20000 | > 20000 | – | – | – | – | – | –
O=C(CCCN1C(=O)C/C(=C\c2ccccc2)C1=O)NO [Example I-1, (E)-4-(3-benzal-2,5-dioxopyrrolidinyl)-N-hydroxybutyramide] | – | > 20000 | > 20000 | > 20000 | > 20000 | – | – | – | – | – | –
O=C(CCCCN1C(=O)C/C(=C\c2ccccc2)C1=O)NO [Example I-2] | – | > 20000 | > 20000 | > 20000 | > 20000 | – | – | – | – | – | –
